US7964635B2, “Amidoacetonitrile derivatives” (Novartis AG, priority 2003, dated 2011)

Legend:
Haemonchus contortus = test: In-vivo test on Haemonchus contortus on Mongolian gerbils using peroral application; details: po, 72 h, worm count 3 days after treatment, read-out: Hc: efficacy, % reduction of the number of worms; for inhibition in vivo at 1 mg/kg: 1 mg/kg peroral; for inhibition in vivo at 10 mg/kg: 10 mg/kg peroral; for inhibition in vivo at 3.2 mg/kg: 3.2 mg/kg peroral
Procedure: (§1) 1. In-Vivo Test on Trichostrongylus colubriformis and Haemonchus contortus on Mongolian Gerbils (Meriones uncuiculatus) Using Peroral Application Six to eight week old Mongolian gerbils are infected through a stomach tube with ca. 2000 third instar larvae each of T. colubriformis and H. contortus. 6 days after infection, the gerbils are treated by peroral application with the test compounds, dissolved in a mixture of 2 parts DMSO and 1 part polyethylene glycol (PEG 400), in quantities of 100, 32 and 10-0.1 mg/kg. On day 9 (3 days after treatment), when most of the H. contortus that are still present are late 4th instar larvae and most of the T. colubriformis are immature adults, the gerbils are killed in order to count the worms. The efficacy is calculated as the % reduction of the number of worms in each gerbil, compared with the geometric average of number of worms from 6 infected and untreated gerbils. The following tables B1, B2 and B3 show a comparison of a series of the compounds of tables 1, 2 and 3 with structurally most closely related ones known from literature, proving the astounding efficacy increase in this test over the state of the art (Hc: Haemonchus contortus; Tc: Trichostrongylus colubriformis): […]

[1] = system: Trichostrongylus colubriformis; test: In-vivo test on Trichostrongylus colubriformis on Mongolian gerbils using peroral application; details: po, 72 h, worm count 3 days after treatment, read-out: Tc: efficacy, % reduction of the number of worms; for inhibition in vivo at 1 mg/kg: 1 mg/kg peroral; for inhibition in vivo at 10 mg/kg: 10 mg/kg peroral; for inhibition in vivo at 3.2 mg/kg: 3.2 mg/kg peroral
Procedure: as §1

CC(C#N)(COc1ccc(C#N)cc1Cl)NC(=O)c1ccc(C(F)(F)F)cc1 (stereo not drawn) [No. 1.1, N-[1-cyano-1-methyl-2-(4-cyano-2-chlorophenoxy)-ethyl]-4-trifluoromethylbenzamide]
inhibition in vivo at 1 mg/kg (Haemonchus contortus): 97% | melting point: 147 to 149 °C | inhibition in vivo at 1 mg/kg [1]: 87%

CC(C#N)(COc1ccc(C#N)cc1C(F)(F)F)NC(=O)c1ccc(C(F)(F)F)cc1 (stereo not drawn) [No. 1.3, N-[1-cyano-1-methyl-2-(4-cyano-2-trifluoromethylphenoxy)-ethyl]-4-trifluoromethyl-benzamide]
inhibition in vivo at 1 mg/kg (Haemonchus contortus): 97% | melting point: 184 to 186 °C | inhibition in vivo at 1 mg/kg [1]: 91%

CC(C#N)(COc1cc(C#N)ccc1Cl)NC(=O)c1ccc(C(F)(F)F)cc1 (stereo not drawn) [No. 1.4, N-[1-cyano-1-methyl-2-(5-cyano-2-chlorophenoxy)-ethyl]-4-trifluoromethylbenzamide]
inhibition in vivo at 1 mg/kg (Haemonchus contortus): 82% | melting point: 147 to 149 °C

CC(C#N)(COc1cc(C#N)ccc1C(F)(F)F)NC(=O)c1ccc(C(F)(F)F)cc1 (stereo not drawn) [No. 1.6, N-[1-cyano-1-methyl-2-(5-cyano-2-trifluoromethylphenoxy)-ethyl]-4-trifluoromethyl-benzamide]
inhibition in vivo at 1 mg/kg (Haemonchus contortus): 97% | melting point: 154 °C | inhibition in vivo at 1 mg/kg [1]: 87%

CC(C#N)(COc1ccccc1Cl)NC(=O)c1ccc(C(F)(F)F)cc1 (stereo not drawn) [No. 1.12, reference compound]
inhibition in vivo at 10 mg/kg (Haemonchus contortus): 82% | inhibition in vivo at 10 mg/kg [1]: 98%

CC(C#N)(COc1ccc(Cl)cc1Cl)NC(=O)c1ccc(C(F)(F)F)cc1 (stereo not drawn) [No. 1.60, reference compound]
inhibition in vivo at 3.2 mg/kg (Haemonchus contortus): 29% | inhibition in vivo at 3.2 mg/kg [1]: 31%

CC(C#N)(COc1ccccc1C(F)(F)F)NC(=O)c1ccc(OC(F)(F)F)cc1 (stereo not drawn) [No. 1.64, reference compound]
inhibition in vivo at 1 mg/kg (Haemonchus contortus): 28% | inhibition in vivo at 1 mg/kg [1]: 55%

CC(C#N)(COc1cc(Cl)ccc1Cl)NC(=O)c1ccc(C(F)(F)F)cc1 (stereo not drawn) [No. 1.72, reference compound]
inhibition in vivo at 10 mg/kg (Haemonchus contortus): 66%

CC(C#N)(COc1cc(Cl)ccc1Cl)NC(=O)c1ccc(OC(F)(F)F)cc1 (stereo not drawn) [No. 1.124, reference compound]
inhibition in vivo at 10 mg/kg (Haemonchus contortus): 84% | inhibition in vivo at 10 mg/kg [1]: 99%

CC(C#N)(COc1ccccc1C(F)(F)F)NC(=O)c1ccc(C(F)(F)F)cc1 (stereo not drawn) [No. 1.264, reference compound]
inhibition in vivo at 3.2 mg/kg (Haemonchus contortus): 57% | inhibition in vivo at 3.2 mg/kg [1]: 76%

CC(C#N)(COc1ccc(C#N)cc1Cl)NC(=O)c1ccc(OC(F)(F)F)cc1 (stereo not drawn) [No. 2.1, N-[1-cyano-1-methyl-2-(4-cyano-2-chlorophenoxy)-ethyl]-4-trifluoromethoxybenzamide]
inhibition in vivo at 3.2 mg/kg (Haemonchus contortus): 100% | melting point: 60 to 62 °C | inhibition in vivo at 3.2 mg/kg [1]: 100%

CC(C#N)(COc1ccc(C#N)cc1C(F)(F)F)NC(=O)c1ccc(OC(F)(F)F)cc1 (stereo not drawn) [No. 2.3, N-[1-cyano-1-methyl-2-(4-cyano-2-trifluoromethylphenoxy)-ethyl]-4-trifluoromethoxy-benzamide]
melting point: 80 to 82 °C

CC(C#N)(COc1cc(C#N)ccc1Cl)NC(=O)c1ccc(OC(F)(F)F)cc1 (stereo not drawn) [No. 2.4, N-[1-cyano-1-methyl-2-(5-cyano-2-chlorophenoxy)-ethyl]-4-trifluoromethoxybenzamide]
inhibition in vivo at 1 mg/kg (Haemonchus contortus): 89% | melting point: 132 to 134 °C | inhibition in vivo at 1 mg/kg [1]: 79%

CC(C#N)(COc1cc(C#N)ccc1C(F)(F)F)NC(=O)c1ccc(OC(F)(F)F)cc1 (stereo not drawn) [No. 2.6, N-[1-cyano-1-methyl-2-(5-cyano-2-trifluoromethylphenoxy)-ethyl]-4-trifluoromethoxybenzamide]
inhibition in vivo at 1 mg/kg (Haemonchus contortus): 95% | inhibition in vivo at 1 mg/kg [1]: 85%

CC(C#N)(COc1ccccc1C(F)(F)F)NC(=O)c1ccc(SC(F)(F)F)cc1 (stereo not drawn) [No. 2.14, reference compound]
inhibition in vivo at 3.2 mg/kg (Haemonchus contortus): 61% | inhibition in vivo at 3.2 mg/kg [1]: 73%

CC(C#N)(COc1ccccc1C(F)(F)F)NC(=O)c1ccc(C(F)(F)F)cc1F (stereo not drawn) [No. 2.19, reference compound]
inhibition in vivo at 10 mg/kg (Haemonchus contortus): 25% | inhibition in vivo at 10 mg/kg [1]: 0%

CC(C#N)(COc1ccc(C#N)cc1Cl)NC(=O)c1ccc(SC(F)(F)F)cc1 (stereo not drawn) [No. 3.1, N-[1-cyano-1-methyl-2-(4-cyano-2-chlorophenoxy)-ethyl]-4-trifluoromethylsulfanylbenzamide]
inhibition in vivo at 1 mg/kg (Haemonchus contortus): 69% | melting point: 167 to 169 °C | inhibition in vivo at 1 mg/kg [1]: 93%

CC(C#N)(COc1ccc(C#N)cc1C(F)(F)F)NC(=O)c1ccc(SC(F)(F)F)cc1 (stereo not drawn) [No. 3.7, N-[1-cyano-1-methyl-2-(4-cyano-2-trifluoromethylphenoxy)-ethyl]-4-trifluoromethylsulfanyl-benzamide]
inhibition in vivo at 1 mg/kg (Haemonchus contortus): 90% | melting point: 79 to 82 °C | inhibition in vivo at 1 mg/kg [1]: 98%

CC(C#N)(COc1ccc(C#N)cc1C(F)(F)F)NC(=O)c1ccc([S+]([O-])C(F)(F)F)cc1 (stereo not drawn) [No. 3.8, N-[1-cyano-1-methyl-2-(4-cyano-2-trifluoromethylphenoxy)-ethyl]-4-trifluoromethylsulfinyl-benzamide]
inhibition in vivo at 1 mg/kg (Haemonchus contortus): 74% | inhibition in vivo at 1 mg/kg [1]: 85%

CC(C#N)(COc1ccc(C#N)cc1C(F)(F)F)NC(=O)c1ccc(S(=O)(=O)C(F)(F)F)cc1 (stereo not drawn) [No. 3.9, N-[1-cyano-1-methyl-2-(4-cyano-2-trifluoromethylphenoxy)-ethyl]-4-trifluoromethylsulfonyl-benzamide]
inhibition in vivo at 1 mg/kg (Haemonchus contortus): 77% | inhibition in vivo at 1 mg/kg [1]: 87%

CC(C#N)(COc1cc(C#N)ccc1Cl)NC(=O)c1ccc(SC(F)(F)F)cc1 (stereo not drawn) [No. 3.10, N-[1-cyano-1-methyl-2-(5-cyano-2-chlorophenoxy)-ethyl]-4-trifluoromethylsulfanylbenzamide]
inhibition in vivo at 1 mg/kg (Haemonchus contortus): 100% | melting point: 125 to 127 °C | inhibition in vivo at 1 mg/kg [1]: 100%

CC(C#N)(COc1cc(C#N)ccc1C(F)(F)F)NC(=O)c1ccc(SC(F)(F)F)cc1 (stereo not drawn) [No. 3.16, N-[1-cyano-1-methyl-2-(5-cyano-2-trifluoromethylphenoxy)-ethyl]-4-trifluoromethylsulfanyl-benzamide]
inhibition in vivo at 1 mg/kg (Haemonchus contortus): 100% | inhibition in vivo at 1 mg/kg [1]: 100%

CC(C#N)(COc1cc(C#N)ccc1C(F)(F)F)NC(=O)c1ccc([S+]([O-])C(F)(F)F)cc1 (stereo not drawn) [No. 3.17, N-[1-cyano-1-methyl-2-(5-cyano-2-trifluoromethylphenoxy)-ethyl]-4-trifluoromethylsulfinyl-benzamide]
inhibition in vivo at 1 mg/kg (Haemonchus contortus): 100% | inhibition in vivo at 1 mg/kg [1]: 100%

CC(C#N)(COc1cc(C#N)ccc1C(F)(F)F)NC(=O)c1ccc(S(=O)(=O)C(F)(F)F)cc1 (stereo not drawn) [No. 3.18, N-[1-cyano-1-methyl-2-(5-cyano-2-trifluoromethylphenoxy)-ethyl]-4-trifluoromethylsulfonyl-benzamide]
inhibition in vivo at 1 mg/kg (Haemonchus contortus): 100% | inhibition in vivo at 1 mg/kg [1]: 100%
